Measurements published in patent US6284523A, “Process for biodegradation of a xenobiotic” (priority 1998, dated 2001).
Read-outs that look alike come from different tables or passages of the source.

Tests used:
[1] = test system: Pseudomonas putida ATCC 11172; assay: Biodegradation of solvents (consumed as substrate); type: cell-based; settings: Table 1; Yes/No
Experimental: (§1) Pseudomonas putida available under ATCC accession number 11172, an organism known to degrade phenol by the meta pathway (Bayly et al.^17) was used in this Example. The organism was maintained on medium previously described (Fujita et al.^11), containing 5 g/L glucose and 100 mg/L phenol as carbon sources. EDTA was also added to the medium at a 1:1 molar ratio with ferric chloride to prevent the formation of a precipitate. Cultures were grown in 125 mL Erlenmeyer flasks containing 50 mL of maintenance medium in a shaker bath at 30° C. The flasks were allowed to incubate for 36 hours prior to their use as inoculum for fermentation. A total of 160 mL of the cultured medium was centrifuged, the supernatant discarded and the cell fraction resuspended in the remaining 40 mL of medium. The 40 mL aliquot was then used to inoculate the fermentor for the batch and fed batch experiments.
The biodegradability of the solvents was assessed as part of the solvent selection process. 5 mL of each solvent was added to 125 mL Erlenmeyer flasks containing 50 mL of seeded maintenance medium containing 250 mg/L phenol but no glucose. Solvent was not added to one flask, which was used as a control. In addition, 5 mL of corn oil was added to one flask, to serve as a positive control. Flasks were placed on the shaker bath as above for 7 days. The cell density in each flask was measured every 24 hours. The net change in cell density was then compared to the change in cell density seen in the control and the positive control.

[2] = Determination of partition coefficients of phenol between solvent and medium buffer; type: physicochemical
Experimental: A stock solution of medium buffer containing 5 g/L of phenol was prepared, and 5 mL samples of the medium buffer were then contacted with 5 mL of solvent using the Mixxor™ contacting system. The contacted samples were then centrifuged, and the organic phase was aspirated and discarded. […] A red colour was developed in the samples, and the absorbance of the solution was measured relative to a blank using a Bausch and Lomb Spectronic 2000™ spectrophotometer. The partition coefficient for phenol in each organic-aqueous system was then be determined by mass balance. Any solvents that formed emulsions with the aqueous phase were eliminated from the solvent screening process, due to the difficulties associated with calculating partition coefficients for these systems.

[3] = test system: Pseudomonas putida ATCC 11172
Experimental: (§3) Samples were taken from the organic and aqueous phases every twelve hours throughout the fermentations. Samples were centrifuged prior to analysis to separate the cell fraction, aqueous phase and organic layer. […] The organic samples were contacted with medium buffer using the Mixxor™ contacting system. The resulting mixture was then centrifuged, and the organic phase aspirated off. Phenol levels in the buffer were then determined as above, and the experimentally determined partition coefficient was used to calculate the concentration of phenol present in the organic phase. Cell density was assessed as described above. Consumption of base was also monitored.

[4] = test system: Pseudomonas putida ATCC 11172; remark: listed apart in the source
Experimental: The microorganism used for these experiments was Pseudomonas putida available under ATCC accession number 11172. The organism was maintained in liquid and solid culture, transferred weekly. The maintenance medium formulation used was as previously described (Fujita et al.^11), with 5 g/L glucose and 100 mg/L phenol provided as carbon sources. Cultures were grown in 125 mL flasks containing 50 mL of medium in a shaker bath at 30° C. for 36 hours prior to inoculation of the fermentor. A total of 160 mL of inoculum from 4 flasks was concentrated by centrifugation, the supernatant decanted and the cell fraction resuspended in the remaining 40 mL of medium to prepare the final inoculum.
(§2) Fermentation was carried out in a 2 L New Brunswick Scientific BioFlo reactor modified for aeration with a fritted glass tube. The fermentor was operated at 30° C., agitated at 200 rpm and aerated at 0.25 vvm, based on the aqueous phase volume. The pH was controlled at 6.8 using 2N KOH. The fermentor was heat sterilized with 1 L of medium (containing no carbon source) already in place. The sterilized medium was then inoculated, and 500 mL of the organic solvent, loaded with 4 g of phenol, was added, as depicted in the schematic diagram shown in FIG. 1. A control fermentor was also prepared in the same manner, but with a cell free aqueous phase, to test for possible volatilization of phenol due to air stripping.
Cell density was estimated by measuring the optical density of samples taken from the aqueous phase at 650 nm. Phenol concentrations in the aqueous phase were estimated using the 4-aminoantipyrine method (Der Yang et al.^12) and a Bausch and Lomb Spectronic 2000 spectrophotometer. The samples were centrifuged prior to analysis in order to remove the cell fraction. The concentration of phenol in the organic phase was measured by contacting a sample taken from the organic phase with medium buffer using a Mixxora contacting system. The resulting mixture was centrifuged, the organic phase aspirated, and the buffer analyzed using the 4-aminoantipyrine method, as mentioned above. The amount of phenol present in the organic phase was then calculated by mass balance using an […] partition coefficient.

Pseudomonas putida = settings: cited from earlier work
[5] = Experimental: as §2
The pH was controlled at 6.8 using 2N KOH.

[6] = test system: Pseudomonas putida ATCC 11172; remark: listed apart in the source
Experimental: To allow for complete biodegradation of the substrate, the carbon-free medium formulation was doubled in concentration, in order to provide adequate nutrients for the fermentation. The fermentor was initially aerated to 0.25 vvm and agitated at 200 rpm, but during the fermentation aeration was increased to 0.5 vvm, and agitation to 250 rpm, to increase the mass transfer of oxygen to the cells. A dissolved oxygen electrode was used to monitor the level of oxygen in the aqueous phase. The pH of the system was controlled at 6.8 using 1N KOH.
as §3

[7] = test system: Pseudomonas putida ATCC 11172; remark: listed apart in the source
Experimental: as §1
The fermentor was prepared as above, but with a second glass sparger added to improve aeration. A propeller was added to the stir shaft of the fermentation vessel, in an attempt to reduce foaming. The fermentation was allowed to progress normally, but when the phenol concentration in the organic phase reached 2 g/L, 250 ml of the organic phase was removed, and spiked with approximately 9 g of phenol. The organic sample was then returned to the reactor, bringing the overall concentration of phenol in the organic phase back to 20 g/L. This was done twice, at 72 hours and at 120 hours. Nutrient spikes (the standard carbon-free medium formulation dissolved in 50 mL of water, instead of 1 L) were also added at 96 hours and at 132 hours, to avoid nutrient depletion in the aqueous phase.
Samples were taken from the organic and aqueous phases every twelve hours throughout the fermentations. Samples were centrifuged prior to analysis to separate the cell fraction, aqueous phase and organic layer. Phenol concentrations in the aqueous phase were assayed using the 4-aminoantipyrine method as described above. The organic samples were contacted with medium buffer using the Mixxor™ contacting system. The resulting mixture was then centrifuged, and the organic phase aspirated off. Phenol levels in the buffer were then determined as above, and the experimentally determined partition coefficient was used to calculate the concentration of phenol present in the organic phase. Cell density was assessed as described above. Consumption of base was also monitored.

[8] = 28 g fed batch, initial 10 g of phenol

**Q.** With CCCCCCCCCCO [1-decanol] as the molecule, how does the “Consumed as Substrate” value [1] read?
**A.** Yes

**Q.** With CCCCCCCCCO [1-nonanol] as the molecule, how does the “Consumed as Substrate” value [1] read?
**A.** Yes

**Q.** Which results are given for CCCCCCCCCCCO [1-undecanol]?
**A.** Partition Coefficient [2]: 20.8; Consumed as Substrate [1]: Yes

**Q.** Which results are given for CCCCCCCCC(C)O (centres unmarked) [2-decanol]?
**A.** Partition Coefficient [2]: 22.6; Consumed as Substrate [1]: No

**Q.** For CCCCCCCCC(C)=O [2-decanone], which “Consumed as Substrate” value [1] is on record?
**A.** No

**Q.** What does the source list for CCCCCCCC(C)O (centres unmarked) [2-nonanol]?
**A.** Partition Coefficient [2]: 28.3; Consumed as Substrate [1]: No

**Q.** For CCCCCCCCCC(C)=O [2-undecanone], which “Consumed as Substrate” value [1] is on record?
**A.** No

**Q.** What does the source list for Oc1ccccc1 [phenol]?
**A.** yield coefficient ([3]; 4 g phenol batch, cells in aqueous phase only): 0.20 g cells/g phenol; initial concentration of phenol in the aqueous phase ([3]; 4 g phenol in organic phase): 168 mg/L; initial lag phase ([3]; 4 g phenol, batch): 12 h; initial concentration of phenol in the aqueous phase ([4]; 4 g phenol in 500 mL 2-undecanone, 1 L aqueous): approximately 168 mg/L; time to consumption of phenol to exhaustion ([4]; 4 g phenol, 2-undecanone, batch): over 48 hours; initial lag phase ([4]; 4 g phenol, batch): 12 h; volumetric phenol consumption rate ([4]; based on aqueous phase volume, 4 g phenol, batch): approximately 80 mg/L-h; yield coefficient ([4]; cells in aqueous phase only, 4 g phenol): approximately 0.21 g cells produced/g phenol consumed; typical yield coefficient on phenol (Pseudomonas putida; Hill et al., g cells/g phenol): 0.52 ± 0.08 g/g; yield coefficient (Pseudomonas putida; Hill et al., printed without unit in Example 1): 0.52+/-0.08; typical inhibitory value of phenol (Pseudomonas putida; Kotturi et al.): 500 mg/L; volumetric phenol consumption rate (Pseudomonas putida; highest literature value, batch system, Fujita et al.): 37.5 mg/L-h; loss of phenol to volatilization ([5]; cell free fermentor, 48 hours, Example 1): no loss of phenol to volatilization; loss of phenol due to air stripping ([5]; control (cell-free) fermentor, Example 2): no phenol was lost due to air stripping; yield coefficient ([6]; 10 g batch system, cells in aqueous phase only): 0.15 g/g; initial concentration of phenol in the aqueous phase ([6]; 10 g phenol in organic phase): approximately 420 mg/L; lag phase ([6]; 10 g phenol, batch): about 24 hours; volumetric phenol consumption rate ([6]; the batch system, based on aqueous phase volume): approximately 135 mg/L-h; yield coefficient ([7]; 28 g fed batch system, cells in aqueous phase only): 0.12 g/g; exponential growth phase [7, 8]: 48 h; lag phase [7, 8]: 24 h; lag phase of cell growth for the spikes of phenol ([7]; fed batch mode): eliminates the lag phase; time to degrade 28 g of phenol ([7]; fed batch system): about 165 hours; volumetric consumption rate ([7]; fed batch system): 175 mg/L-h; time to consumption of the last 10 g of phenol to exhaustion ([7]; fed batch, time from start of fermentation): under 168 hours
